These are literature values, as cited in patent US9463189B2 (BPV Holdings, LLC, priority 2007, dated 2016).

Counter-ions that a name gives are not always drawn.

The subject of series [1] is PPAR. Conditions: shown in US2006/0167012A1 and US2006/0205736A1; cited from earlier work.
Series [2] relates to methionine- and choline-deficient diet model of NASH. Conditions: Nagasawa T et al., Eur. J. Pharmacol. (2006); cited from earlier work.
Series [3] has as its system genetically obese rodent model. Conditions: Gary-Bobo, M. et al., Hepatology 2007; cited from earlier work.

Take `C[C@@H]1CN(c2ccc(OC(F)(F)F)cc2)C[C@H](C)N1S(=O)(=O)c1cccc2c1C[C@@H](C(=O)O)C2` [Compound 1, (S)-4-[cis-2,6-Dimethyl-4-(4-trifluoromethoxy-phenyl)-piperazine-1-sulfonyl]-indan-2-carboxylic acid tosylate]: the PPAR modulator activity result in series [1] is given as “PPAR modulators”.
On to `Cc1cc(SCc2sc(-c3ccc(C(F)(F)F)cc3)nc2C)ccc1OCC(=O)O` [GW501516], for which, in series [2], the “fatty acid β-oxidation” value was “increased”, the hepatic steatosis result is listed as “improved hepatic steatosis”, the hepatic triglyceride deposition result is reported as “decreased” and the inflammation result was “decreased”. In series [2], the “inflammatory cytokines or chemokines” value is given as “decreased” and the “number of activated hepatic stellate cells” value was “decreased”.
`Cc1c(C(=O)NN2CCCCC2)nn(-c2ccc(Cl)cc2Cl)c1-c1ccc(Cl)cc1` [rimonabant]: the “outcome in genetically obese rodent model” value in series [3] is recorded as “positive outcome”.
